Measurements as given in patent publication US11267812B2 (Mirati Therapeutics, Inc., priority 2016, dated 2022).
pIC50: −log10 of the molar value.

Tested on: Phospho-ERK in NCI-H358 cells expressing KRas G12C
Experiment: Cellular inhibition of KRas G12C by Phospho-ERK measurement in NCI-H358 cells
Type: cell-based
Details: Homo sapiens; NCI-H358 cells, 3 hours compound treatment; read-out: IC50 (pERK(Thr202/Tyr204) normalized with GAPDH)
Protocol: The cellular inhibition of KRAs G12C by exemplary compounds of the present invention was determined by measuring the amount of a downstream marker of KRas activity, phosphorylated ERK (“Phospho-ERK”).
NCI-H358 cells (ATCC CRL-5807) express KRas G12C and were grown in RPMI medium supplemented with 10% fetal bovine serum, penicillin/streptomycin and 10 mM HEPES. Cells were plated in poly-D-Lysine coated 96-well plates at a concentration of 50,000 cells/well and allowed to attach for 8-12 hours. Diluted compounds were then added at a final concentration of 0.5% DMSO. After 3 hours, the medium was removed, 150 μL of 4% formaldehyde was added and the plates were incubated for 20 minutes. The plates were washed with PBS, and permeabilized using 150 μL of ice cold 100% methanol for 10 minutes. Non-specific antibody binding to the plates was blocked using 100 μL Licor Blocking Buffer (Li-Cor Biotechnology, Lincoln Nebr.) for 1 hour at room temperature. Positive control samples and samples lacking cells were parallel processed with test samples as standards.
The amount Phospho-ERK was determined using an antibody specific for the phosphorylated form of ERK and compared to the amount of GAPDH. Primary antibodies used for detection were added as follows: Phospho-ERK (Cell Signaling cs9101) diluted 1:500 and GAPDH (Millipore MAB374) diluted 1:5000 in Licor block+0.05% Tween 20. The plates were incubated for 2 hours at room temperature. The plates were washed with PBS+0.05% Tween 20.
Secondary antibodies used to visualize primary antibodies were added as follows: Anti-rabbit-680 diluted 1:1000 and Anti-mouse-800 diluted 1:1000 in Licor Block+0.050 Tween 20 and incubated for 1 hour at room temperature. The plates were washed with PBS+0.05% o Tween 20. A100 L aliquot of PBS was added to each well and the plates were read on a LICOR AERIUS plate reader.
The pERK(Thr202/Tyr204) signal was normalized with the GAPDH signal and percent of DMSO control values were calculated. IC50 values were generated using a 4 parameter fit of the dose response curve. Key: “A”≥0.001-≤1 μM; “B”[…] and ND=not determined.

Structure (SMILES) | pIC50
C=CC(=O)N1CCN(c2nc(OCC3CCCN(C)C3)nc3c2CCN(c2cc(O)cc4ccccc24)C3)CC1 (centres unmarked) [Example 72, 1-(4-(7-(3-hydroxynaphthalen-1-yl)-2-((1-methylpiperidin-3-yl)methoxy)-5,6,7,8-tetrahydropyrido[3,4-d]pyrimidin-4-yl)piperazin-1-yl)prop-2-en-1-one] | 6.00 to 9.00
C=CC(=O)N1CCN(c2nc(OCCCN3CCOCC3)nc3c2CCN(c2cc(O)cc4ccccc24)C3)CC1 [Example 74, 1-(4-(7-(3-hydroxynaphthalen-1-yl)-2-(3-morpholinopropoxy)-5,6,7,8-tetrahydropyrido[3,4-d]pyrimidin-4-yl)piperazin-1-yl)prop-2-en-1-one] | 6.00 to 9.00
C=CC(=O)N1CCN(c2nc(O[C@H](C)CN3CCCCC3)nc3c2CCN(c2cc(O)cc4ccccc24)C3)CC1 [Example 75, (R)-1-(4-(7-(3-hydroxynaphthalen-1-yl)-2-((1-(piperidin-1-yl)propan-2-yl)oxy)-5,6,7,8-tetrahydropyrido[3,4-d]pyrimidin-4-yl)piperazin-1-yl)prop-2-en-1-one] | 6.00 to 9.00
C=CC(=O)N1CCN(c2nc(OCCN3C[C@@H]4CC[C@H]3C4)nc3c2CCN(c2cc(O)cc4ccccc24)C3)CC1 [Example 77, 1-(4-(2-(2-((1S,4R)-2-azabicyclo[2.2.1]heptan-2-yl)ethoxy)-7-(3-hydroxynaphthalen-1-yl)-5,6,7,8-tetrahydropyrido[3,4-d]pyrimidin-4-yl)piperazin-1-yl)prop-2-en-1-one] | 6.00 to 9.00
C=CC(=O)N1CCN(c2nc(OCCCN3CCN(C)CC3)nc3c2CCN(c2cc(O)cc4ccccc24)C3)CC1 [Example 82, 1-(4-(7-(3-hydroxynaphthalen-1-yl)-2-(3-(4-methylpiperazin-1-yl)propoxy)-5,6,7,8-tetrahydropyrido[3,4-d]pyrimidin-4-yl)piperazin-1-yl)prop-2-en-1-one] | 6.00 to 9.00
C=CC(=O)N1CCN(c2nc(OCCN3CCCC[C@@H]3C)nc3c2CCN(c2cc(O)cc4ccccc24)C3)CC1 [Example 88, (S)-1-(4-(7-(3-hydroxynaphthalen-1-yl)-2-(2-(2-methylpiperidin-1-yl)ethoxy)-5,6,7,8-tetrahydropyrido[3,4-d]pyrimidin-4-yl)piperazin-1-yl)prop-2-en-1-one] | 6.00 to 9.00
C=CC(=O)N1CCN(c2nc(OCC3CCN(C)C3)nc3c2CCN(c2cc(O)cc4ccccc24)C3)CC1 (centres unmarked) [Example 89, 1-(4-(7-(3-hydroxynaphthalen-1-yl)-2-((1-methylpyrrolidin-3-yl)methoxy)-5,6,7,8-tetrahydropyrido[3,4-d]pyrimidin-4-yl)piperazin-1-yl)prop-2-en-1-one] | 6.00 to 9.00
C=CC(=O)N1CCN(c2nc(OCCCN3CCOCC3)nc3c2CCN(c2cc(O)ccc2OC(F)(F)F)C3)CC1 [Example 90, 1-(4-(7-(5-hydroxy-2-(trifluoromethoxy)phenyl)-2-(3-morpholinopropoxy)-5,6,7,8-tetrahydropyrido[3,4-d]pyrimidin-4-yl)piperazin-1-yl)prop-2-en-1-one] | 6.00 to 9.00
C=CC(=O)N1CCN(c2nc(OCCN3CCC(C)CC3)nc3c2CCN(c2cc(O)cc4ccccc24)C3)CC1 [Example 92, 1-(4-(7-(3-hydroxynaphthalen-1-yl)-2-(2-(4-methylpiperidin-1-yl)ethoxy)-5,6,7,8-tetrahydropyrido[3,4-d]pyrimidin-4-yl)piperazin-1-yl)prop-2-en-1-one] | 6.00 to 9.00
C=CC(=O)N1CCN(c2nc(OCCN3CCCC[C@H]3C)nc3c2CCN(c2cc(O)cc4ccccc24)C3)CC1 [Example 97, (R)-1-(4-(7-(3-hydroxynaphthalen-1-yl)-2-(2-(2-methylpiperidin-1-yl)ethoxy)-5,6,7,8-tetrahydropyrido[3,4-d]pyrimidin-4-yl)piperazin-1-yl)prop-2-en-1-one] | 6.00 to 9.00
C=CC(=O)N1CCN(c2nc(OCCCN3CCCOCC3)nc3c2CCN(c2cc(O)cc4ccccc24)C3)CC1 [Example 101, 1-(4-(2-(3-(1,4-oxazepan-4-yl)propoxy)-7-(3-hydroxynaphthalen-1-yl)-5,6,7,8-tetrahydropyrido[3,4-d]pyrimidin-4-yl)piperazin-1-yl)prop-2-en-1-one] | 6.00 to 9.00
C=CC(=O)N1CCN(c2nc(OCCN(CC)CC)nc3c2CCN(c2cc(O)cc4ccccc24)C3)CC1 [Example 102] | 6.00 to 9.00
C=CC(=O)N1CCN(c2nc(OCC3CCN(CCOC)C3)nc3c2CCN(c2cc(O)cc4ccccc24)C3)CC1 (centres unmarked) [Example 103, 1-(4-(7-(3-hydroxynaphthalen-1-yl)-2-((1-(2-methoxyethyl)pyrrolidin-3-yl)methoxy)-5,6,7,8-tetrahydropyrido[3,4-d]pyrimidin-4-yl)piperazin-1-yl)prop-2-en-1-one] | 6.00 to 9.00
C=CC(=O)N1CCN(c2nc(OCCCN3C[C@@H]4C[C@H]3CO4)nc3c2CCN(c2cc(O)cc4ccccc24)C3)CC1 [Example 104, 1-(4-(2-(3-((1S,4S)-2-oxa-5-azabicyclo[2.2.1]heptan-5-yl)propoxy)-7-(3-hydroxynaphthalen-1-yl)-5,6,7,8-tetrahydropyrido[3,4-d]pyrimidin-4-yl)piperazin-1-yl)prop-2-en-1-one] | 6.00 to 9.00
C=CC(=O)N1CCN(c2nc(OCCN3CCC(OC)CC3)nc3c2CCN(c2cc(O)cc4ccccc24)C3)CC1 [Example 108, 1-(4-(7-(3-hydroxynaphthalen-1-yl)-2-(2-(4-methoxypiperidin-1-yl)ethoxy)-5,6,7,8-tetrahydropyrido[3,4-d]pyrimidin-4-yl)piperazin-1-yl)prop-2-en-1-one] | 6.00 to 9.00
C=CC(=O)N1CCN(c2nc(OC[C@@H]3CCN(C)C3)nc3c2CCN(c2cc(O)cc4ccccc24)C3)CC1 [Example 110, (R)-1-(4-(7-(3-hydroxynaphthalen-1-yl)-2-((1-methylpyrrolidin-3-yl)methoxy)-5,6,7,8-tetrahydropyrido[3,4-d]pyrimidin-4-yl)piperazin-1-yl)prop-2-en-1-one] | 6.00 to 9.00
C=CC(=O)N1CCN(c2nc(OCCN3CCC[C@H](F)C3)nc3c2CCN(c2cc(O)cc4ccccc24)C3)CC1 [Example 111, (S)-1-(4-(2-(2-(3-fluoropiperidin-1-yl)ethoxy)-7-(3-hydroxynaphthalen-1-yl)-5,6,7,8-tetrahydropyrido[3,4-d]pyrimidin-4-yl)piperazin-1-yl)prop-2-en-1-one] | 6.00 to 9.00
C=CC(=O)N1CCN(c2nc(O[C@H](C)CN(C)C)nc3c2CCN(c2cc(O)cc4ccccc24)C3)[C@@H](C)C1 [Example 115, 1-((S)-4-(2-(((R)-1-(dimethylamino)propan-2-yl)oxy)-7-(3-hydroxynaphthalen-1-yl)-5,6,7,8-tetrahydropyrido[3,4-d]pyrimidin-4-yl)-3-methylpiperazin-1-yl)prop-2-en-1-one] | 6.00 to 9.00
C=CC(=O)N1CCN(c2nc(OCCN(C)C)nc3c2CCN(c2cc(O)cc4ccccc24)C3)[C@@H](C)C1 [Example 116, (S)-1-(4-(2-(2-(dimethylamino)ethoxy)-7-(3-hydroxynaphthalen-1-yl)-5,6,7,8-tetrahydropyrido[3,4-d]pyrimidin-4-yl)-3-methylpiperazin-1-yl)prop-2-en-1-one] | 6.00 to 9.00
C=CC(=O)N1CCN(c2nc(O[C@H](C)CN3CCCC3)nc3c2CCN(c2cc(O)cc4ccccc24)C3)CC1 [Example 120, (R)-1-(4-(7-(3-hydroxynaphthalen-1-yl)-2-((1-(pyrrolidin-1-yl)propan-2-yl)oxy)-5,6,7,8-tetrahydropyrido[3,4-d]pyrimidin-4-yl)piperazin-1-yl)prop-2-en-1-one] | 6.00 to 9.00
